Results on 13 molecules are retold here after US20240150303A1, “DIAMINOTRIAZINE COMPOUNDS” (BASF SE, priority 2021, published 2024).

Common to all, as to test: greenhouse pre-emergence herbicidal test
Holding throughout (type): in vivo

The test system of one experiment is Alopercurus myosuroides. The text has this: (§1) The culture containers used were plastic flowerpots containing loamy sand with approximately 3.0% of humus as the substrate. The seeds of the test plants were sown separately for each species.
(§2) For the pre-emergence treatment, the active ingredients, which had been suspended or emulsified in water, were applied directly after sowing by means of finely distributing nozzles.
(§3) The containers were irrigated gently to promote germination and growth and subsequently covered with transparent plastic hoods until the plants had rooted. This cover caused uniform germination of the test plants, unless this had been impaired by the active ingredients.
(§4) Depending on the species, the plants were kept at 10-25° C. or 20-35° C., respectively.
(§5) The test period extended over 2 to 4 weeks. During this time, the plants were tended, and their response to the individual treatments was evaluated.
(§6) Evaluation was carried out using a scale from 0 to 100. 100 means no emergence of the plants, or complete destruction of at least the aerial moieties, and 0 means no damage, or normal course of growth. A moderate herbicidal activity is given at values of at least 60, a good herbicidal activity is given at values of at least 70, and a very good herbicidal activity is given at values of at least 85.
(§7) The plants used in the greenhouse experiments were of the following species: […]

For the next experiment, the system named is Amaranthus retroflexus. The text has this:
(§8) The seeds of the test plants were sown separately for each species. For the pre-emergence treatment, the active ingredients, which had been suspended or emulsified in water, were applied directly after sowing by means of finely distributing nozzles. The containers were irrigated gently to promote germination and growth and subsequently covered with transparent plastic hoods until the plants had rooted. This cover caused uniform germination of the test plants, unless this had been impaired by the active ingredients. […] The test period extended over 2 to 4 weeks. During this time, the plants were tended, and their response to the individual treatments was evaluated. Evaluation was carried out using a scale from 0 to 100. 100 means no emergence of the plants, or complete destruction of at least the aerial moieties, and 0 means no damage, or normal course of growth. A moderate herbicidal activity is given at values of at least 60, a good herbicidal activity is given at values of at least 70, and a very good herbicidal activity is given at values of at least 85. The plants used in the greenhouse experiments were of the following species: [table]

Another experiment deals with Setaria faberi.
From the text: as §8

The test system of the next experiment is Echinocloa crus-galli.
From the text: as §8

The next experiment deals with Abutilon theophrasti.
From the text: as §1, §2, §3, §4, §5, §6, §7

As for `COc1c(Br)cc(Cl)c(C)c1Nc1nc(N)nc(C(C)(F)CCl)n1` (racemic) [Example 98], the herbicidal activity with Alopercurus myosuroides (62 g/ha), in the experiment on Amaranthus retroflexus (62 g/ha) and in the experiment with Setaria faberi (62 g/ha) was 100% throughout.

On to `CC#CCOc1c(Br)cc(F)c(C)c1Nc1nc(N)nc(C(C)(C)F)n1` [Example 21], for which the herbicidal activity in the experiment with Alopercurus myosuroides (62 g/ha) is 100%; in the experiment on Amaranthus retroflexus (62.5 g/ha) it was 95%; in the experiment with Echinocloa crus-galli (62 g/ha), 100%; in the experiment with Echinocloa crus-galli (62.5 g/ha), 100%; in the experiment on Setaria faberi (62 g/ha), 100%; with Setaria faberi (62.5 g/ha), 100%.

In the case of `COc1c(F)cc(C)c(C)c1Nc1nc(N)nc(C(C)(C)F)n1` [Example 54], the herbicidal activity in the experiment with Alopercurus myosuroides (62.5 g/ha), in the experiment with Abutilon theophrasti (62 g/ha), in the experiment on Abutilon theophrasti (62.5 g/ha), in the experiment on Amaranthus retroflexus (62 g/ha), in the experiment with Echinocloa crus-galli (62 g/ha) and with Echinocloa crus-galli (62.5 g/ha) was 100% in each case.

As to `COc1c(F)cc(Br)c(Cl)c1Nc1nc(N)nc(C(C)(C)F)n1` [Example 58], the herbicidal activity in the experiment on Abutilon theophrasti (62.5 g/ha), in the experiment with Amaranthus retroflexus (62 g/ha), with Echinocloa crus-galli (62 g/ha), in the experiment with Echinocloa crus-galli (62.5 g/ha), with Setaria faberi (62 g/ha) and in the experiment on Setaria faberi (62.5 g/ha) was 100% throughout.

In the case of `COc1c(Br)ccc(C)c1Nc1nc(N)nc(C(C)(C)F)n1` [Example 62], the herbicidal activity with Abutilon theophrasti (62 g/ha), in the experiment on Amaranthus retroflexus (31 g/ha), with Amaranthus retroflexus (62 g/ha), with Echinocloa crus-galli (31 g/ha), in the experiment on Echinocloa crus-galli (62 g/ha) and with Setaria faberi (31 g/ha) was 100% throughout.

Turning to `COc1c(Cl)cc(F)c(C)c1Nc1nc(N)nc(C(C)(F)CBr)n1` (stereo not drawn) [Example 66], the herbicidal activity with Abutilon theophrasti (62 g/ha), in the experiment with Amaranthus retroflexus (62 g/ha), in the experiment with Echinocloa crus-galli (62 g/ha) and with Setaria faberi (62 g/ha) was 100% each time.

As for `COc1c(Cl)cc(F)c(C)c1Nc1nc(N)nc(C(C)(F)F)n1` [Example 67], the herbicidal activity in the experiment on Abutilon theophrasti (62 g/ha), in the experiment on Amaranthus retroflexus (62 g/ha), with Echinocloa crus-galli (62 g/ha) and in the experiment with Setaria faberi (62 g/ha) was 100% in each case.

With `COc1c(Cl)cc(F)c(C)c1Nc1nc(N)nc(C(C)(F)CCl)n1` (stereo not drawn) [Example 68], the herbicidal activity in the experiment with Abutilon theophrasti (62 g/ha), in the experiment on Amaranthus retroflexus (62 g/ha), in the experiment with Echinocloa crus-galli (62 g/ha) and with Setaria faberi (62 g/ha) was 100% in each case.

On to `COc1c(Cl)cc(F)c(C)c1Nc1nc(N)nc(C(C)F)n1` (stereo not drawn) [Example 69], for which the herbicidal activity in the experiment on Abutilon theophrasti (62 g/ha), in the experiment on Amaranthus retroflexus (62 g/ha), in the experiment with Echinocloa crus-galli (62 g/ha) and in the experiment on Setaria faberi (62 g/ha) was 100% in each case.

Consider `COc1c(Cl)cc(F)c(C)c1Nc1nc(N)nc(C(C)(C)F)n1` [Example 70], for which the herbicidal activity in the experiment on Abutilon theophrasti (62 g/ha), with Amaranthus retroflexus (62 g/ha), in the experiment with Echinocloa crus-galli (62 g/ha) and in the experiment on Setaria faberi (62 g/ha) was 100% each time.

As for `COc1c(Cl)ccc(Cl)c1Nc1nc(N)nc(C(C)F)n1` (stereo not drawn) [Example 71], the herbicidal activity in the experiment with Abutilon theophrasti (62 g/ha), with Amaranthus retroflexus (62 g/ha), with Echinocloa crus-galli (62 g/ha) and with Setaria faberi (62 g/ha) was 100% each time.

In the case of `COc1c(Cl)cc(Cl)c(C)c1Nc1nc(N)nc(C2(F)CC2)n1` [Example 93], the herbicidal activity in the experiment on Abutilon theophrasti (62.5 g/ha) is 80%; in the experiment on Amaranthus retroflexus (62 g/ha) it was 100%; with Amaranthus retroflexus (62.5 g/ha) it was 100%; in the experiment with Echinocloa crus-galli (62 g/ha), 100%; in the experiment on Setaria faberi (62 g/ha) it was 100%; in the experiment with Setaria faberi (62.5 g/ha) it was 70%.

`COc1c(Br)cc(Cl)c(C)c1Nc1nc(N)nc(C(C)(F)F)n1` [Example 97]: the herbicidal activity was determined as 70% in the experiment with Alopercurus myosuroides (62 g/ha), 85% in the experiment on Amaranthus retroflexus (62 g/ha) and 85% in the experiment on Setaria faberi (62 g/ha).
